According to patent US4818816A, “Process for the organic synthesis of oligosaccharides and derivatives thereof” (Choay, S.A., priority 1981, dated 1989):

How the values were obtained:
Xa factor [1] = test: anti-Xa activity, Yin-Wessler test; type: biochemical
AT III = test: affinity for AT III; type: binding
blood coagulation = test: APTT test, overall anticoagulant activity
Xa factor [2] = test: anti-Xa test using a chromogen substrate (method of Teien A.M. and Lie modified); type: biochemical; conditions: Xa factor (Sigma) 8 u/ml, substrate 1.33 mM, diluted human plasma, 37° C.
Protocol: In a test using a chromogen substrate, this activity has even been 4000 anti-Xa units/mg (method of Teien A.M. and Lie modified; Thrombosis Research No. 10, 1977, 388-410).
This test consists of using the Xa factor marketed by the Sigma company in solution at 8 u/ml in physiological serum, the concentration of the substrate being 1.33 mM.
To carry out this test it is possible to proceed as follows.
10 μl of solution to be determined and 300 μl of human plasma diluted with Tris maleate buffer 0.02M, […] are mixed.
It is left to incubate one minute at 37° C.
100 μl of the above-said Xa factor (8 u/ml) are added and one minute later, the solution obtained is injected into the substrate.

| SMILES | anti-Xa activity (Yin-Wessler) (Xa factor [1]) | affinity for AT III (AT III) | overall anticoagulant activity (APTT test) (blood coagulation) | Yin-Wessler titres compared with those of heparin (Xa factor [1]; compared with heparin) | selective inhibition activity of the activated X factor or Xa factor of the blood (Xa factor [1]; test not specified) | anti-Xa activity in a test using a chromogen substrate (Xa factor [2]) |
| --- | --- | --- | --- | --- | --- | --- |
| O=C(O)[C@H]1O[C@@H](O[C@H]2[C@H](OS(=O)(=O)O)[C@@H](NS(=O)(=O)O)C(O)O[C@@H]2COS(=O)(=O)O)[C@H](O)[C@@H](O)[C@@H]1O[C@H]1O[C@H](COS(=O)(=O)O)[C@@H](O)[C@H](O)[C@H]1NS(=O)(=O)O (stereo partly shown) | ~7 u/mg | – | – | – | – | – |
| O=C(O)[C@H]1O[C@@H](O[C@H]2[C@H](OS(=O)(=O)O)[C@@H](NS(=O)(=O)O)[C@@H](O[C@H]3[C@H](O)[C@@H](OS(=O)(=O)O)[C@H](O[C@H]4[C@H](O)[C@@H](NS(=O)(=O)O)C(O)O[C@@H]4COS(=O)(=O)O)O[C@H]3C(=O)O)O[C@@H]2COS(=O)(=O)O)[C@H](O)[C@@H](O)[C@@H]1O[C@H]1O[C@H](COS(=O)(=O)O)[C@@H](O)[C@H](O)[C@H]1NS(=O)(=O)O (stereo partly shown) [pentasaccharide 50] | ≥ 2000 u/mg | high affinity | 4 u/mg | distinctly higher | very high selective inhibition activity | 4000 anti-Xa units/mg |
